Source: ChEMBL document CHEMBL1201862, “PubChem BioAssay data set” (2004)
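48-hour exposure; five concentrations; linearly interpolated endpoints. GI50 marks 50% less growth.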 The source made the active and inactive calls. Cut-off read from the data, not from the text of the source: active = GI50 up to about 1.1 µM and inactive = higher.

How the values were obtained:
Assay in all cases: NCI-60 cell line screen, 48 h
SNB-75 = system: SNB-75
MDA-N = system: MDA-N
HCC 2998 = system: HCC 2998
NCI-H23 = system: NCI-H23
OVCAR-5 = system: OVCAR-5
A498 = system: A498
A549 = system: A549
OVCAR-3 = system: OVCAR-3
HOP-92 = system: HOP-92
OVCAR-4 = system: OVCAR-4
NCI-H460 = system: NCI-H460
SN12C = system: SN12C
M14 = system: M14
SW-620 = system: SW-620
UACC-62 = system: UACC-62
CCRF-CEM = system: CCRF-CEM
HCT-116 = system: HCT-116
Hs-578T = system: Hs-578T
NCI-H226 = system: NCI-H226

Measured: GI50

C=C1CC(O)C2C(=C)C(=O)OC2C2C(C)C(=O)CC12 (stereo not drawn)
inactive: SNB-75 15.1 µM | MDA-N 6.87 µM | HCC 2998 20 µM | NCI-H23 16 µM | OVCAR-5 16.1 µM | A498 29.4 µM | A549 20.3 µM | OVCAR-3 11.6 µM | HOP-92 13 µM | OVCAR-4 17.6 µM | NCI-H460 24.5 µM | SN12C 15.5 µM | M14 11.8 µM | SW-620 5.12 µM | UACC-62 15.3 µM | CCRF-CEM 4.08 µM | HCT-116 10 µM | Hs-578T 19.1 µM

NC(N)=NCc1ccc2c(c1)OCO2
inactive: SNB-75 > 100 µM | MDA-N > 100 µM | HCC 2998 > 100 µM | NCI-H23 61.1 µM | OVCAR-5 > 100 µM | A498 28.2 µM | A549 > 100 µM | OVCAR-3 97.3 µM | HOP-92 54.1 µM | OVCAR-4 > 100 µM | NCI-H460 > 100 µM | M14 > 100 µM | SW-620 > 100 µM | UACC-62 > 100 µM | CCRF-CEM 94 µM | HCT-116 78.3 µM | Hs-578T > 100 µM

OC1(c2ccc(Cl)cc2)c2ccccc2C2=NCc3ccccc3CN21 (stereo not drawn)
inactive: SNB-75 6.35 µM | MDA-N 12.9 µM | HCC 2998 2.18 µM | NCI-H23 6.97 µM | OVCAR-5 13.1 µM | NCI-H226 5.47 µM | A498 13.6 µM | A549 4.58 µM | OVCAR-3 1.7 µM | HOP-92 13.1 µM | OVCAR-4 12.6 µM | NCI-H460 11.2 µM | SN12C 17.5 µM | M14 2.96 µM | SW-620 2.69 µM | UACC-62 13.6 µM | CCRF-CEM 7.6 µM | HCT-116 6.62 µM | Hs-578T 14.9 µM

CC1=NN(c2ccccc2)C(=O)/C1=C1\SC(c2ccccc2)(c2ccccc2)c2ccccc21
inactive: SNB-75 > 100 µM | MDA-N > 100 µM | HCC 2998 > 100 µM | NCI-H23 > 100 µM | OVCAR-5 > 100 µM | NCI-H226 > 100 µM | A498 > 100 µM | A549 > 100 µM | OVCAR-3 > 100 µM | HOP-92 > 100 µM | OVCAR-4 > 100 µM | NCI-H460 > 100 µM | SN12C > 100 µM | M14 > 100 µM | SW-620 > 100 µM | UACC-62 > 100 µM | CCRF-CEM > 100 µM | HCT-116 50.4 µM | Hs-578T > 100 µM

COC(=O)C(Cc1ccc2c(c1)CCCC2)Cc1cc2c(cc1C(O)OC)CCC2 (stereo not drawn)
inactive: SNB-75 > 100 µM | MDA-N 56.8 µM | HCC 2998 57.9 µM | NCI-H23 73.5 µM | OVCAR-5 80.9 µM | NCI-H226 > 100 µM | A498 > 100 µM | A549 41.5 µM | OVCAR-3 89.7 µM | HOP-92 18.5 µM | OVCAR-4 80 µM | NCI-H460 35.8 µM | SN12C 96.2 µM | M14 93.3 µM | SW-620 67.1 µM | UACC-62 > 100 µM | CCRF-CEM 58.9 µM | HCT-116 39.6 µM | Hs-578T 57.9 µM

O=C(NC1=NC2C=CC([N+](=O)[O-])=CC2S1)C(=O)Nn1c(S)nc2ccccc2c1=O (stereo not drawn)
inactive: SNB-75 47.1 µM | MDA-N > 100 µM | HCC 2998 > 100 µM | NCI-H23 40.7 µM | OVCAR-5 > 100 µM | NCI-H226 18.8 µM | A498 30.4 µM | A549 > 100 µM | OVCAR-3 > 100 µM | HOP-92 29.4 µM | OVCAR-4 27.4 µM | NCI-H460 80.5 µM | SN12C > 100 µM | M14 > 100 µM | SW-620 > 100 µM | UACC-62 92 µM | CCRF-CEM 45.9 µM | HCT-116 79.3 µM | Hs-578T 39.4 µM

O=[N+]([O-])/C(Cl)=C(\Nc1ccccc1)C(Cl)=C(Cl)Cl
inactive: SNB-75 2.19 µM | MDA-N 36 µM | HCC 2998 37.5 µM | NCI-H23 44.8 µM | OVCAR-5 40.8 µM | NCI-H226 26.5 µM | A498 30.8 µM | A549 32.7 µM | OVCAR-3 18.2 µM | HOP-92 28.9 µM | OVCAR-4 41.6 µM | NCI-H460 39.4 µM | SN12C 33.9 µM | M14 23.7 µM | UACC-62 26.2 µM | CCRF-CEM 12.7 µM | HCT-116 36.1 µM | Hs-578T 34.3 µM

C[C@@H](NC(=O)Cn1c(Cl)nc2ccccc21)c1ccccc1
inactive: SNB-75 > 100 µM | MDA-N > 100 µM | HCC 2998 > 100 µM | NCI-H23 46.2 µM | OVCAR-5 > 100 µM | NCI-H226 > 100 µM | A498 > 100 µM | A549 > 100 µM | OVCAR-3 > 100 µM | HOP-92 > 100 µM | OVCAR-4 > 100 µM | NCI-H460 > 100 µM | M14 > 100 µM | SW-620 > 100 µM | UACC-62 > 100 µM | CCRF-CEM > 100 µM | HCT-116 > 100 µM | Hs-578T 51.6 µM

CCOC(=O)C1=C(OS(=O)(=O)C(F)(F)F)CCCC1
inactive: SNB-75 > 100 µM | MDA-N > 100 µM | HCC 2998 > 100 µM | NCI-H23 > 100 µM | OVCAR-5 > 100 µM | NCI-H226 > 100 µM | A498 > 100 µM | A549 > 100 µM | OVCAR-3 > 100 µM | HOP-92 > 100 µM | OVCAR-4 > 100 µM | NCI-H460 > 100 µM | M14 > 100 µM | SW-620 > 100 µM | UACC-62 > 100 µM | CCRF-CEM > 100 µM | Hs-578T > 100 µM

O=C1OC(c2ccccc2)N(C(=O)c2ccccc2)C1Cc1ccc(OCc2ccccc2)cc1 (stereo not drawn)
inactive: SNB-75 15.7 µM | MDA-N > 100 µM | HCC 2998 21.8 µM | NCI-H23 36.7 µM | OVCAR-5 > 100 µM | NCI-H226 > 100 µM | A498 4.67 µM | A549 80.2 µM | HOP-92 3.91 µM | NCI-H460 60 µM | SN12C > 100 µM | M14 > 100 µM | SW-620 > 100 µM | UACC-62 8.11 µM | CCRF-CEM > 100 µM | HCT-116 > 100 µM | Hs-578T 35.6 µM

O[C@@]1(C#Cc2ccc3c(c2)OCO3)CCC[C@H]1NCc1ccccc1
inactive: SNB-75 27.8 µM | MDA-N 16.9 µM | HCC 2998 17.1 µM | NCI-H23 29.6 µM | OVCAR-5 34.8 µM | NCI-H226 15.9 µM | A498 28.6 µM | A549 31.3 µM | OVCAR-3 20.4 µM | HOP-92 13.7 µM | OVCAR-4 38.6 µM | NCI-H460 24.7 µM | M14 15.7 µM | SW-620 31.4 µM | UACC-62 16.9 µM | CCRF-CEM 33.8 µM | Hs-578T 21.2 µM

COc1ccc(/C(C)=N/NC(=O)c2ccncc2)cc1OC
inactive: SNB-75 > 10 µM | MDA-N > 10 µM | HCC 2998 > 10 µM | NCI-H23 > 10 µM | NCI-H226 2.82 µM | A498 > 10 µM | A549 > 10 µM | HOP-92 > 10 µM | OVCAR-4 > 10 µM | NCI-H460 > 10 µM | SN12C > 10 µM | M14 > 10 µM | SW-620 > 10 µM | UACC-62 > 10 µM | CCRF-CEM > 10 µM | Hs-578T 7.05 µM

O=[As](O)(O)c1ccc2nc3cc([As](=O)(O)O)ccc3nc2c1
inactive: SNB-75 > 100 µM | MDA-N > 100 µM | HCC 2998 > 100 µM | NCI-H23 > 100 µM | OVCAR-5 > 100 µM | NCI-H226 > 100 µM | A498 > 100 µM | A549 > 100 µM | OVCAR-3 > 100 µM | HOP-92 > 100 µM | OVCAR-4 > 100 µM | NCI-H460 > 100 µM | SN12C > 100 µM | M14 > 100 µM | SW-620 > 100 µM | UACC-62 > 100 µM | HCT-116 > 100 µM | Hs-578T > 100 µM

Cn1c2ccccc2n2c(=O)c(-c3ccc(Cl)cc3)nnc12
inactive: SNB-75 > 100 µM | MDA-N > 100 µM | HCC 2998 > 100 µM | NCI-H23 > 100 µM | OVCAR-5 > 100 µM | NCI-H226 > 100 µM | A498 > 100 µM | A549 > 100 µM | HOP-92 > 100 µM | OVCAR-4 68.4 µM | NCI-H460 > 100 µM | SN12C > 100 µM | M14 > 100 µM | SW-620 > 100 µM | CCRF-CEM > 100 µM | HCT-116 > 100 µM | Hs-578T > 100 µM

N#Cc1c(-c2ccccc2)[nH]c2ccccc2c1=O
inactive: SNB-75 15.1 µM | MDA-N 33.4 µM | HCC 2998 > 10 µM | OVCAR-5 > 100 µM | NCI-H226 41.6 µM | A498 > 100 µM | A549 9.59 µM | OVCAR-3 83.6 µM | HOP-92 > 100 µM | OVCAR-4 > 100 µM | NCI-H460 > 100 µM | SN12C 95.7 µM | M14 > 100 µM | SW-620 91 µM | UACC-62 73.8 µM | CCRF-CEM > 100 µM | HCT-116 87.5 µM | Hs-578T 19.2 µM

COC(=O)/C=C1/OC(c2ccccc2)=C(C)C1=O
inactive: SNB-75 23.6 µM | MDA-N 1.36 µM | HCC 2998 16.6 µM | NCI-H23 20.2 µM | OVCAR-5 16 µM | NCI-H226 15.8 µM | A498 18.7 µM | OVCAR-3 20 µM | HOP-92 13.2 µM | NCI-H460 20 µM | M14 11.7 µM | SW-620 2.4 µM | UACC-62 4.12 µM | CCRF-CEM 3.62 µM | HCT-116 4.18 µM | Hs-578T 27.5 µM
